{"source": "patent US11033604B2", "about": "“Reagents and methods for treating bacterial infection” (priority 2018, dated 2021)", "key": {"[1]": {"test_system": "S. aureus SH1000 WT biofilms", "assay": "ThT fluorescence assay of amyloid formation in S. aureus SH1000 WT biofilm cultures", "type": "cell-based, Staphylococcus aureus", "conditions": "24 h, 37° C., peptide 80 μM unless otherwise noted, vs peptide-free control", "description": "We developed a novel protocol to identify amyloid fibril formation during biofilm development in two S. aureus strains—SH1000 WT, a rsbU^+ laboratory strain^27, and MN8, a clinical strain isolated from the human urogenital tract (Table 1). After 24 hours of batch growth in microtiter plates, biofilms were washed and incubated with Thioflavin T (ThT), and the resulting fluorescence signals served as a proxy for the extent of PSM fibril formation in the EM (FIG. 1A). Next, we utilized this assay to test α-sheet amyloid inhibitor designs and control peptides (sequences provided in Table 2) in batch biofilm cultures. The first inhibitor used is AP90 (Alternating Peptide #90, referred to as α1 previously^25,26). […]\nOvernight cultures of S. aureus (see Table 1 for a list of strains used in this study) were spun down and re-suspended in fresh Luria-Bertani (LB) media to an optical density of 0.1 (600 nm). […] The detached biofilm suspensions were transferred to a 96-well black-walled plate (Corning, TC-treated polystyrene) and ThT fluorescence was read at 438/495 nm on a Perkin-Elmer Enspire™ plate reader. Fluorescence measurements were corrected by subtracting the background intensity of identical samples without ThT. […] After 15 minutes of incubation at room temperature, fluorescence ratios of the two dyes were determined using a Perkin-Elmer Enspire™ plate reader."}, "[2]": {"test_system": "Escherichia coli (EC)", "assay": "Crystal violet biofilm assay", "type": "cell-based", "source_text": "Furthermore, these same inhibitors are active against EC, SE, and SM."}, "[3]": {"test_system": "E. coli UTI89 WT biofilms", "assay": "In situ ThT assay of EM amyloid in E. coli UTI89 WT biofilms", "type": "cell-based", "description": "(§1) FIG. 12. […] Error bars indicate standard deviation of the mean of at least three replicates. Significance values are p<0.05: *, p<0.01: **, p<0.001: ***.\nBiofilms of the cystitis E. coli isolate UTI89 were cultivated in YESCA broth with 4% DMSO at 26° C., conditions which are known to elicit increased curli biogenesis. Varying doses of the dimeric α-sheet peptide, AP193, were also added to the cultures at the time of inoculation. AP193 is covalently linked through a single cysteine in each of its constituent monomers. Since DMSO was already present in the biofilm growth medium, AP193 stocks were supplemented with 4% DMSO to improve solubility, and the buffer solution was maintained at high pH (sodium carbonate, pH 9.6) to retain oxidation of the disulfide bond. After 48 hours of growth, biofilms were washed, homogenized, and stained with ThT.\n(§2) UTI89 biofilms were also cultivated in the presence of an unstructured peptide, P1, which retains a mixture of L- and D-amino acids but lacks the α-sheet secondary structure of AP193."}, "[4]": {"test_system": "UTI89 WT biofilms", "assay": "Biofilm adherence to glass slides after washing", "type": "cell-based, E. coli", "conditions": "after gentle washing", "source_text": "as §1, §2"}, "[5]": {"test_system": "GERB 319", "assay": "ThT assay of EM amyloid in clinical isolate biofilms", "type": "cell-based, E. coli", "conditions": "antibiotic resistant clinical isolate GERB 319", "source_text": "(§3) FIG. 12. Synthetic α-sheet peptides inhibit amyloid formation in uropathogenic E. coli biofilms. […] E) AP193 is also effective in reducing the EM amyloid content of two clinical isolate strains, GERB 319 and GERB 337. Error bars indicate standard deviation of the mean of at least three replicates. Significance values are p<0.05: *, p<0.01: **, p<0.001: ***.\n(§4) To extend the applicability of synthetic α-sheet peptides beyond the well-characterized UTI89 system, we obtained several E. coli isolates from pediatric patients who presented with urinary tract infections."}, "[6]": {"test_system": "GERB 337", "assay": "ThT assay of EM amyloid in clinical isolate biofilms", "type": "cell-based, E. coli", "conditions": "antibiotic resistant clinical isolate GERB 337", "source_text": "as §3, §4"}, "[7]": {"test_system": "E. coli UTI89 WT biofilms", "assay": "Antibiotic susceptibility test with gentamicin (live/dead ratio and CFU counts)", "type": "cell-based", "conditions": "150 μg/mL gentamicin, 6 h, vs peptide-free controls", "description": "FIG. 13. Synthetic α-sheet peptides increase antibiotic susceptibility of uropathogenic E. coli biofilms, as measured by A) live/dead fluorescence ratio and (B) CFU counts. Error bars indicate standard deviation of the mean of at least three replicates.\nTo test this hypothesis, biofilms of E. coli UTI89 WT were grown in YESCA broth+4% DMSO in 48 well plates at 26° C. Media was removed 6 h prior to the end of the 48 h incubation period and replaced either with fresh media alone or fresh media containing 150 μg/mL gentamicin (Gm), an aminoglycoside antibiotic. After the 6 h incubation, biofilms were harvested by aspirating the planktonic cells, rinsing the biofilm once with PBS, and then resuspending the biofilm in PBS. Biofilm suspensions were homogenized with a probe sonicator and subjected to one of two processing protocols. In the first assay, the bacterial density of each biofilm suspension was normalized by absorbance at 670 nm and then bacteria were stained with Live/Dead (Syto9/propidum iodide) to obtain a fluorescent readout of viability. In the second assay, biofilm suspensions were serially diluted in sterile PBS and then plated on agar plates to obtain colony-forming unit (CFU) counts."}}, "note": "Positions of bridges follow the written chain, without caps; N, C: chain ends. Non-standard residues stand in square brackets, D forms with d. No end group written: not given here."}
{"substance": "RGEmNlCwMNEYSGWcMnLkMGR (RGE[dM]N[dL]C[dW]MNEYSGW[dC]M[dN]L[dK]MGR; disulfide 7-16 (inferred)) [AP407, variant of AP90 with a disulfide bond]", "values": [{"measurement": "Reduction of amyloid fibril formation (ThT fluorescence)", "setting": "[1]", "value": 56, "unit": "%"}]}
{"substance": "RGEmNlSwMNEYSGWtMnLkMGR (RGEMNLSWMNEYSGWTMNLKMGR; not fully specified (residues 4, 6, 8, 16, 18, 20); printed as RGEmNlSwMNEYSGWtMnLkMGR) [AP90]", "values": [{"measurement": "Activity against biofilm-forming bacteria (crystal violet)", "setting": "[2]", "value": "active"}]}
{"substance": "RGEmNyFwMNEYYGWtMnCkMGR (RGE[dM]N[dY]F[dW]MNEYYGW[dT]M[dN]C[dK]MGR) [AP193, hydrophobic AP90 derivative, variant to support different chemical coupling reactions]", "values": [{"measurement": "EM amyloid content of biofilm (ThT fluorescence), varying doses", "setting": "[3]; YESCA broth + 4% DMSO, 26° C., 48 h", "value": "dose-dependent reduction in ThT fluorescence"}, {"measurement": "ThT fluorescence of biofilm at highest dose", "setting": "[3]; highest dose", "value": "reduced the ThT fluorescence of WT biofilms to levels near those of the ΔcsgA strain"}, {"measurement": "Adherence of biofilm to glass slides", "setting": "[4]", "value": "far less adherent to glass slides"}, {"measurement": "ThT fluorescence of biofilm", "setting": "[5]", "value": "significant decrease in ThT fluorescence"}, {"measurement": "ThT fluorescence of biofilm", "setting": "[6]", "value": "significant decrease in ThT fluorescence"}, {"measurement": "Efficacy of gentamicin (Gm) against biofilms (live/dead ratio, CFU counts)", "setting": "[7]", "value": "improved the efficacy of Gm"}]}
